{
  "source": "patent US20030152643A1",
  "about": "“Combination of an alpha-adrenergic antagonist and a nitrogen oxide donor for treating female sexual dysfunctions” (priority 1998, published 2003)",
  "origin": "cited, not measured here",
  "test_system": "erectile dysfunctions",
  "conditions": "administration in men; Zorgniotti and Lizza 1994",
  "data": [
    {"smiles": "N=C(N)NCCC[C@H](N)C(=O)O", "note": "[L-arginine]", "values": [
      {"measurement": "effect on erectile dysfunctions in men", "result": "favorable effect on erectile dysfunctions in certain cases"}
    ]}
  ]
}
